From US20250163038A1, “CBL-B MODULATORS AND USES THEREOF” (Nimbus Clio, Inc., priority 2021, published 2025)

Key:
[1] = biological target: T1, Recombinant human c-Cbl (aa 47-435) (Homo sapiens, UniProt P22681); assay: c-Cbl Biochemical Assay (TR-FRET); conditions: hc-Cbl Biochemical Assay (TR-FRET); read-out: TR-FRET hcCbl IC50
T1 sequence (P22681 47-435): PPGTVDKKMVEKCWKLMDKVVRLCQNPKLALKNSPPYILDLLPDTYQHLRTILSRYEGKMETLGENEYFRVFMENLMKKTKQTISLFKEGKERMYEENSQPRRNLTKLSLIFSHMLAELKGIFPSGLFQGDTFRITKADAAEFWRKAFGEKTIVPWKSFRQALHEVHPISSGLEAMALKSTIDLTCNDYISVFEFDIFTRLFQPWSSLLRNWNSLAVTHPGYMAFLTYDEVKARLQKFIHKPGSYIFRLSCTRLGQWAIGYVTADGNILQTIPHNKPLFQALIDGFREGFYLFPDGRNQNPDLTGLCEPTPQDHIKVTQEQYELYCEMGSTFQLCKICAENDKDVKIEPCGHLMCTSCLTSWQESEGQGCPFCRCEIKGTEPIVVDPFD

[2] = system: Jurkat (clone E6-1) cells with NFAT luciferase reporter; assay: Jurkat reporter assay (NFAT Luciferase); type: cell-based; conditions: Homo sapiens; Jurkat NFAT luciferase reporter cells, anti-CD3 stimulation, 6 hr; read-out: Jurkat NFAT EC50
[3] = biological target: Recombinant human Cbl-b (aa 36-427) (Homo sapiens, UniProt Q13191); assay: Cbl-b Biochemical Assay (TR-FRET); conditions: read-out: TR-FRET hCbl-b IC50
Recombinant human Cbl-b (aa 36-427), sequence (Q13191 36-427): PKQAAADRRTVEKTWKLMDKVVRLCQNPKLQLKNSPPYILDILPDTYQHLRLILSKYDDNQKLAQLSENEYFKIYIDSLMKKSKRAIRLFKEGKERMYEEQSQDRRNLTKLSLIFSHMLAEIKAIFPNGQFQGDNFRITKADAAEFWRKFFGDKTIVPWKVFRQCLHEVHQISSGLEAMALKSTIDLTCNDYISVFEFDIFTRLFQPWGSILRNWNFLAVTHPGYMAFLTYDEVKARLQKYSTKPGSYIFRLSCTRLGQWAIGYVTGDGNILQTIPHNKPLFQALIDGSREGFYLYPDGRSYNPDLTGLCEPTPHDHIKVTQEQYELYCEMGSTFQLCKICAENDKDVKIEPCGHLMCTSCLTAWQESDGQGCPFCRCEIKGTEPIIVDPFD

| SMILES | IC50 [1] | EC50 [2] | IC50 [3] |
| --- | --- | --- | --- |
| COCCNCc1cc(F)c2oc(-c3cccc(-c4ccc(F)cc4-c4nncn4C)c3)nc2c1 [IS-1, N-((7-Fluoro-2-(4′-fluoro-2′-(4-methyl-4H-1,2,4-triazol-3-yl)-[1,1′-biphenyl]-3-yl)benzo[d]oxazol-5-yl)methyl)-2-methoxyethan-1-amine] | < 200 nM | < 200 nM | < 200 nM |
| [2H]C([2H])([2H])N(Cc1cc(C(F)(F)F)c2oc(-c3cccc(-c4ccc(F)cc4-c4nncn4C)c3)nc2c1)[C@@H]1CCC[C@@H]1O [IT-1, (1S,2R)-2-(((2-(4′-Fluoro-2′-(4-methyl-4H-1,2,4-triazol-3-yl)-[1,1′-biphenyl]-3-yl)-7-(trifluoromethyl)benzo[d]oxazol-5-yl)methyl)(methyl-d3)amino)cyclopentan-1-ol] | < 200 nM | < 200 nM | < 200 nM |
| CO[C@H]1CCCN(Cc2cc(C(F)(F)F)c3oc(-c4cccc(-c5ccc(F)cc5-c5nncn5C)c4)nc3c2)C1 [IU-2, (S)-2-(4′-Fluoro-2′-(4-methyl-4H-1,2,4-triazol-3-yl)-[1,1′-biphenyl]-3-yl)-5-((3-methoxypiperidin-1-yl)methyl)-7-(trifluoromethyl)benzo[d]oxazole] | < 200 nM | 200 to 1000 nM | < 200 nM |
| Cn1cnnc1-c1cc(F)ccc1-c1cccc(-c2nc3cc(CN4CCCC[C@@H]4CO)cc(C(F)(F)F)c3o2)c1 [IV-2, (R)-(1-((2-(4′-Fluoro-2′-(4-methyl-4H-1,2,4-triazol-3-yl)-[1,1′-biphenyl]-3-yl)-7-(trifluoromethyl)benzo[d]oxazol-5-yl)methyl)piperidin-2-yl)methanol] | 200 to 1000 nM | 200 to 1000 nM | < 200 nM |
| Cn1cnnc1-c1cc(F)ccc1-c1cccc(-c2nc3cc(CNCC4(O)CCC4)c(F)c(F)c3o2)c1 [IW-1, 1-((((6,7-Difluoro-2-(4′-fluoro-2′-(4-methyl-4H-1,2,4-triazol-3-yl)-[1,1′-biphenyl]-3-yl)benzo[d]oxazol-5-yl)methyl)amino)methyl)cyclobutan-1-ol] | < 200 nM | < 200 nM | < 200 nM |
| Cn1cnnc1-c1cc(F)ccc1-c1cccc(-c2nc3cc(CNCC4CCC4)c(F)c(F)c3o2)c1 [IX-1, 1-Cyclobutyl-N-((6,7-difluoro-2-(4′-fluoro-2′-(4-methyl-4H-1,2,4-triazol-3-yl)-[1,1′-biphenyl]-3-yl)benzo[d]oxazol-5-yl)methyl)methanamine] | < 200 nM | < 200 nM | < 200 nM |
| COCCNCc1cc2nc(-c3cccc(-c4ccc(F)cc4-c4nncn4C)c3)oc2c(F)c1F [IY-1, N-((6,7-Difluoro-2-(4′-fluoro-2′-(4-methyl-4H-1,2,4-triazol-3-yl)-[1,1′-biphenyl]-3-yl)benzo[d]oxazol-5-yl)methyl)-2-methoxyethan-1-amine] | < 200 nM | < 200 nM | < 200 nM |
| Cn1cnnc1-c1cc(F)ccc1-c1cccc(-c2nc3cc(CNCC4(O)CCC4)cc(F)c3o2)c1 [IZ-1, 1-((((7-Fluoro-2-(4′-fluoro-2′-(4-methyl-4H-1,2,4-triazol-3-yl)-[1,1′-biphenyl]-3-yl)benzo[d]oxazol-5-yl)methyl)amino)methyl)cyclobutan-1-ol] | < 200 nM | < 200 nM | < 200 nM |
| Cn1cnnc1-c1cc(F)ccc1-c1cccc(-c2nc3cc(CN4CCCC[C@H]4CO)cc(C(F)(F)F)c3o2)c1 [JB-2, (S)-(1-((2-(4′-Fluoro-2′-(4-methyl-4H-1,2,4-triazol-3-yl)-[1,1′-biphenyl]-3-yl)-7-(trifluoromethyl)benzo[d]oxazol-5-yl)methyl)piperidin-2-yl)methanol] | 1000 to 10000 nM | 1000 to 10000 nM | < 200 nM |
| COCCNCc1cc(C)c2oc(-c3cccc(-c4ccc(F)cc4-c4nncn4C)c3)nc2c1F [JC-1, N-((4-Fluoro-2-(4′-fluoro-2′-(4-methyl-4H-1,2,4-triazol-3-yl)-[1,1′-biphenyl]-3-yl)-7-methylbenzo[d]oxazol-5-yl)methyl)-2-methoxyethan-1-amine] | 1000 to 10000 nM | 1000 to 10000 nM | 200 to 1000 nM |
| Cn1cnnc1-c1cc(F)ccc1-c1cccc(-c2nc3cc(CNCC(C)(C)O)c(F)c(F)c3o2)c1 [JD-1, 1-(((6,7-Difluoro-2-(4′-fluoro-2′-(4-methyl-4H-1,2,4-triazol-3-yl)-[1,1′-biphenyl]-3-yl)benzo[d]oxazol-5-yl)methyl)amino)-2-methylpropan-2-ol] | < 200 nM | < 200 nM | < 200 nM |
| Cn1cnnc1-c1cc(F)ccc1-c1cccc(-c2nc3cc(CNCC4COC4)c(F)c(F)c3o2)c1 [JE-1, 1-(6,7-Difluoro-2-(4′-fluoro-2′-(4-methyl-4H-1,2,4-triazol-3-yl)-[1,1′-biphenyl]-3-yl)benzo[d]oxazol-5-yl)-N-(oxetan-3-ylmethyl)methanamine] | 200 to 1000 nM | < 200 nM | < 200 nM |
| Cn1cnnc1-c1cc(F)ccc1-c1cccc(-c2nc3cc(CNC4CCC4)c(F)c(F)c3o2)c1 [JF-1, N-((6,7-Difluoro-2-(4′-fluoro-2′-(4-methyl-4H-1,2,4-triazol-3-yl)-[1,1′-biphenyl]-3-yl)benzo[d]oxazol-5-yl)methyl)cyclobutanamine] | 200 to 1000 nM | < 200 nM | < 200 nM |
| Cn1cnnc1-c1cc(F)ccc1-c1cccc(-c2nc3cc(CNCC4(O)CCC4)cc(C4CC4)c3o2)c1 [JG-1, 1-((((7-Cyclopropyl-2-(4′-fluoro-2′-(4-methyl-4H-1,2,4-triazol-3-yl)-[1,1′-biphenyl]-3-yl)benzo[d]oxazol-5-yl)methyl)amino)methyl)cyclobutan-1-ol] | < 200 nM | < 200 nM | < 200 nM |
| COCCNCc1cc(C2CC2)c2oc(-c3cccc(-c4ccc(F)cc4-c4nncn4C)c3)nc2c1 [JH-1, N-((7-Cyclopropyl-2-(4′-fluoro-2′-(4-methyl-4H-1,2,4-triazol-3-yl)-[1,1′-biphenyl]-3-yl)benzo[d]oxazol-5-yl)methyl)-2-methoxyethan-1-amine] | < 200 nM | < 200 nM | < 200 nM |
| Cn1cnnc1-c1cc(F)ccc1-c1cccc(-c2nc3cc(CN[C@@H]4CCC[C@@]4(O)C(F)(F)F)cc(C(F)(F)F)c3o2)c1 [JI-3, (1S,2R)-2-(((2-(4′-Fluoro-2′-(4-methyl-4H-1,2,4-triazol-3-yl)-[1,1′-biphenyl]-3-yl)-7-(trifluoromethyl)benzo[d]oxazol-5-yl)methyl)amino)-1-(trifluoromethyl)cyclopentan-1-ol] | < 200 nM | < 200 nM | < 200 nM |
| CN(Cc1cc2nc(-c3cccc(-c4ccc(F)cc4-c4nncn4C)c3)oc2c(F)c1F)[C@@H]1CCC[C@@H]1O [JJ-3, (1S,2R)-2-(((6,7-Difluoro-2-(4′-fluoro-2′-(4-methyl-4H-1,2,4-triazol-3-yl)-[1,1′-biphenyl]-3-yl)benzo[d]oxazol-5-yl)methyl)(methyl)amino)cyclopentan-1-ol] | < 200 nM | 200 to 1000 nM | < 200 nM |
| COCCNC(COC)c1cc(C)c2oc(-c3cccc(-c4ccc(F)cc4-c4nncn4C)c3)nc2c1 (stereo not drawn) [JK-7, 1-(2-(4′-Fluoro-2′-(4-methyl-4H-1,2,4-triazol-3-yl)-[1,1′-biphenyl]-3-yl)-7-methylbenzo[d]oxazol-5-yl)-2-methoxy-N-(2-methoxyethyl)ethan-1-amine] | 200 to 1000 nM | 1000 to 10000 nM | < 200 nM |
| Cn1cnnc1-c1cc(F)ccc1-c1cc(-c2nc3cc(CNCC(C)(C)O)cc(C(F)(F)F)c3o2)cc(C2CC2)c1 [JL-1, 1-(((2-(5-Cyclopropyl-4′-fluoro-2′-(4-methyl-4H-1,2,4-triazol-3-yl)-[1,1′-biphenyl]-3-yl)-7-(trifluoromethyl)benzo[d]oxazol-5-yl)methyl)amino)-2-methylpropan-2-ol] | < 200 nM | < 200 nM | < 200 nM |
| Cn1cnnc1-c1cc(F)ccc1-c1cc(-c2nc3cc(CN[C@@H]4CCC[C@@H]4O)cc(F)c3o2)cc(C2CC2)c1 [JM-4, (1S,2R)-2-(((2-(5-Cyclopropyl-4′-fluoro-2′-(4-methyl-4H-1,2,4-triazol-3-yl)-[1,1′-biphenyl]-3-yl)-7-fluorobenzo[d]oxazol-5-yl)methyl)amino)cyclopentan-1-ol] | < 200 nM | < 200 nM | < 200 nM |
| Cn1cnnc1-c1cc(F)ccc1-c1cccc(-c2nc3cc(CNCC(C)(C)O)cc(F)c3o2)c1 [JN-1, 1-(((7-Fluoro-2-(4′-fluoro-2′-(4-methyl-4H-1,2,4-triazol-3-yl)-[1,1′-biphenyl]-3-yl)benzo[d]oxazol-5-yl)methyl)amino)-2-methylpropan-2-ol] | < 200 nM | < 200 nM | < 200 nM |
| Cn1cnnc1-c1cc(F)ccc1-c1cc(-c2nc3cc(CNCC4CCC4)cc(F)c3o2)cc(C2CC2)c1 [JO-1, 1-Cyclobutyl-N-((2-(5-cyclopropyl-4′-fluoro-2′-(4-methyl-4H-1,2,4-triazol-3-yl)-[1,1′-biphenyl]-3-yl)-7-fluorobenzo[d]oxazol-5-yl)methyl)methanamine] | < 200 nM | < 200 nM | < 200 nM |
